Assay results taken from patent publication US20260356851A1, “TRICYCLIC COMPOUNDS AND USES THEREOF” (HUTCHMED LIMITED, priority 2023, published 2026).
Like-named read-outs stand apart in the source and are kept apart here.

What was measured:
Type in all cases: cell-based
[1] = biological target: T1, pERK1/2 (Thr202/Tyr204), NCI-1H441 (KRAS G12V) (Homo sapiens, UniProt P01116, G12V); experiment: Assay of intracellular pERK1/2 (Thr202/Tyr204) phosphorylation in NCI-H441 cells (KRAS G12V)
T1 construct: pERK1/2 HTRF read-out
T1 sequence (P01116 1-188 isoform P01116-2 G12V): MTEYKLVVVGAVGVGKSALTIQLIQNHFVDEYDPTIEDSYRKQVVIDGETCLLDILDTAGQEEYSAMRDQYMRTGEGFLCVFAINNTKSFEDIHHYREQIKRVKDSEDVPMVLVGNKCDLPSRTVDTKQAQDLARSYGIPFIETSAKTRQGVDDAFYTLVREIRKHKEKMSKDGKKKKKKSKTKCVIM
Procedure, shortened: (§1)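 Cells (10000-12000/well) exposed to 3-fold compound dilutions for 2 days at 37 °C, then lysed; pERK1/2 (Thr202/Tyr204) measured by HTRF with d2 and cryptate antibodies, 665/615 nm ratio.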

[2] = biological target: T2, pERK1/2 (Thr202/Tyr204), PANC-1 (KRAS G121D) (Homo sapiens, UniProt P01116, G12D); experiment: Assay of intracellular pERK1/2 (Thr202/Tyr204) phosphorylation in PANC-1 cells (KRAS G12D)
T2 construct: pERK1/2 HTRF read-out
T2 sequence (P01116 1-188 isoform P01116-2 G12D): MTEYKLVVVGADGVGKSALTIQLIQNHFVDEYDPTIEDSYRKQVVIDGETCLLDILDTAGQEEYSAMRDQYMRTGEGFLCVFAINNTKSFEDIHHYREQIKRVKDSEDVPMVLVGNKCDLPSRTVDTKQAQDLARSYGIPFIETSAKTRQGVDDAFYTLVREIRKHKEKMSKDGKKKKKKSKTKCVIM
Procedure, shortened: as §1

[3] = biological target: T3, pERK1/2 (Thr202/Tyr204), NCI-1H358 (KRAS G12C) (Homo sapiens, UniProt P01116, G12C); experiment: Assay of intracellular pERK1/2 (Thr202/Tyr204) phosphorylation in NCI-H358 cells (KRAS G12C)
T3 construct: pERK1/2 HTRF read-out
T3 sequence (P01116 1-188 isoform P01116-2 G12C): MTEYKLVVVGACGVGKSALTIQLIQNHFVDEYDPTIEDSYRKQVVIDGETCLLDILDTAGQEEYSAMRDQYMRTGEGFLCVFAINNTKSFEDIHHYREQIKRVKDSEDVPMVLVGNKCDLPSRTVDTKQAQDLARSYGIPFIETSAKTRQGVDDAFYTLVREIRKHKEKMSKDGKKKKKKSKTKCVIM
Procedure, shortened: as §1

[4] = pERK1/2, 2 days, read-out: NCI-H441 (KRAS G12V) IC50
[5] = pERK1/2, 2 days, read-out: PANC-1 (KRAS G12D) IC50
[6] = pERK1/2, 2 days, read-out: NCI-H358 (KRAS G12C) IC50

Structure (SMILES) | IC50 ([1]; read-out: NCI-H441 (KRAS G12V) IC50, pERK1/2, 2 days) | IC50 ([2]; read-out: PANC-1 (KRAS G12D) IC50, pERK1/2, 2 days) | IC50 ([3]; read-out: NCI-H358 (KRAS G12C) IC50, pERK1/2, 2 days) | IC50 [1, 4] | IC50 [2, 5] | IC50 [3, 6]
CC(c1cccnc1N)N1CCOc2nc(-c3cc(O)cc4ccc(F)c(F)c34)c(F)c3nc(OC[C@@]45CCCN4C[C@H](F)C5)nc1c23 (stereo partly drawn) [Compound 1, 4-(10-(1-(2-Aminopyridin-3-yl)ethyl)-4-fluoro-2-(((2R,7aS)-2-fluorotetrahydro-1H-pyrrolizin-7a(5H)-yl)methoxy)-9,10-dihydro-8H-7-oxa-1,3,6,10-tetraazacyclohepta[de]naphthalen-5-yl)-5,6-difluoronaphthalen-2-ol] | 0.003 µM | 0.006 µM | 0.0007 µM | – | – | –
Cc1cc2[nH]ncc2c(-c2nc3c4c(nc(OC[C@@]56CCCN5C[C@H](F)C6)nc4c2F)N(C(C)c2cccnc2N)CCO3)c1C (stereo partly drawn) [Compound 2, 3-(1-(5-(5,6-Dimethyl-1H-indazol-4-yl)-4-fluoro-2-(((2R,7aS)-2-fluorotetrahydro-1H-pyrrolizin-7a(5H)-yl)methoxy)-8,9-dihydro-1OH-7-oxa-1,3,6,10-tetraazacyclohepta[de]naphthalen-10-yl)ethyl)pyridin-2-amine] | – | – | – | 0.042 µM | 0.321 µM | 0.009 µM
Cc1cc2[nH]ncc2c(-c2nc3c4c(nc(O)nc4c2F)N(C(C)c2cccnc2N)CCO3)c1C (stereo not drawn) [Compound 3, 10-(1-(2-Aminopyridin-3-yl)ethyl)-5-(5,6-dimethyl-1H-indazol-4-yl)-4-fluoro-9,10-dihydro-8H-7-oxa-1,3,6,10-tetraazacyclohepta[de]naphthalen-2-ol] | – | – | – | > 1 µM | > 1 µM | > 1 µM
CC(c1cccnc1N)N1CCOc2nc(-c3cc(O)cc(Cl)c3C3CC3)c(F)c3nc(OC[C@@]45CCCN4C[C@H](F)C5)nc1c23 (stereo partly drawn) [Compound 4] | – | – | – | 0.002 µM | 0.01 µM | 0.001 µM
Cc1cc2[nH]ncc2c(-c2nc3c4c(nc(OCC5(CN(C)C)CC5)nc4c2F)N(C(C)c2cccnc2N)CCO3)c1C (stereo not drawn) [Compound 5] | – | – | – | > 1 µM | > 1 µM | 0.71 µM
CC(c1cccnc1N)N1CCOc2nc(-c3cc(O)cc4ccc(F)c(F)c34)c(F)c3nc(OC[C@@H]4CCCN4C)nc1c23 (stereo partly drawn) [Compound 6] | – | – | – | 0.017 µM | 0.136 µM | 0.004 µM
CC(c1cccnc1N)N1CCOc2nc(-c3cc(O)cc4ccc(F)c(F)c34)c(F)c3nc(OCC4(CN(C)C)CC4)nc1c23 (stereo not drawn) [Compound 7] | – | – | – | 0.033 µM | 0.238 µM | 0.008 µM
CC(c1cccnc1N)N1CCOc2nc(-c3cc(O)cc4ccc(F)c(F)c34)c(F)c3nc(OC[C@@H]4CCN4CC(F)F)nc1c23 (stereo partly drawn) [Compound 8] | – | – | – | 0.002 µM | 0.113 µM | 0.001 µM
CC(c1cccnc1N)N1CCOc2nc(-c3cc(O)cc4ccc(F)c(F)c34)c(F)c3nc(O)nc1c23 (stereo not drawn) [Compound 9] | – | – | – | > 1 µM | > 1 µM | > 1 µM
CCOc1nc2c3c(nc(-c4cc(O)cc5ccc(F)c(F)c45)c(F)c3n1)OCCN2C(C)c1cccnc1N (stereo not drawn) [Compound 10] | – | – | – | 0.797 µM | > 1 µM | 0.152 µM
CC(c1cccnc1N)N1CCOc2nc(-c3cc(O)cc4ccc(F)c(F)c34)c(F)c3nc(OC[C@@]45CCCN4C/C(=C\F)C5)nc1c23 (stereo partly drawn) [Compound 11] | – | – | – | 0.001 µM | 0.004 µM | 0.001 µM
CC(c1cccnc1N)N1CCOc2nc(-c3cc(O)cc4ccc(F)c(F)c34)c(F)c3nc(OC[C@H]4COCCN4)nc1c23 (stereo partly drawn) [Compound 12] | – | – | – | 0.192 µM | > 1 µM | 0.054 µM
CC(c1cccnc1N)N1CCOc2nc(-c3cc(O)cc4ccc(F)c(F)c34)c(F)c3nc(OC[C@@H]4COCCN4)nc1c23 (stereo partly drawn) [Compound 13] | – | – | – | 0.247 µM | > 1 µM | 0.137 µM
Cc1cc2[nH]ncc2c(-c2nc3c4c(nc(OC[C@@H]5CCN5CC(F)F)nc4c2F)N(C(C)c2cccnc2N)CCO3)c1C (stereo partly drawn) [Compound 14] | – | – | – | 0.036 µM | > 1 µM | 0.019 µM
CC(c1cccnc1N)N1CCOc2nc(-c3c(C(F)(F)F)ccc4[nH]ncc34)c(F)c3nc(OC[C@@]45CCCN4C[C@H](F)C5)nc1c23 (stereo partly drawn) [Compound 15] | – | – | – | 0.017 µM | 0.175 µM | 0.002 µM
CC(c1cccnc1N)N1CCOc2nc(-c3cc(O)cc(Cl)c3C3CC3)c(F)c3nc(OC[C@@H]4CCN4CC(F)F)nc1c23 (stereo partly drawn) [Compound 16] | – | – | – | 0.005 µM | 0.151 µM | 0.002 µM

Structure (SMILES) | IC50 ([1]; read-out: NCI-H441 (KRAS G12V) IC50, pERK1/2, 2 days) | IC50 ([2]; read-out: PANC-1 (KRAS G12D) IC50, pERK1/2, 2 days) | IC50 ([3]; read-out: NCI-H358 (KRAS G12C) IC50, pERK1/2, 2 days) | IC50 [1, 4] | IC50 [2, 5] | IC50 [3, 6]
CC(c1cccnc1N)N1CCOc2nc(-c3cccc4sc(N)nc34)c(F)c3nc(OC[C@@H]4CCN4CC(F)F)nc1c23 (stereo partly drawn) [Compound 17] | – | – | – | 0.108 µM | > 1 µM | 0.029 µM
CC(c1cccnc1N)N1CCOc2nc(-c3cc(N)ccc3C(F)(F)F)c(F)c3nc(OC[C@@]45CCCN4C[C@H](F)C5)nc1c23 (stereo partly drawn) [Compound 18] | – | – | – | 0.003 µM | 0.054 µM | 0.001 µM
CC(c1cccnc1N)N1CCOc2nc(-c3ccc(F)c4sc(N)nc34)c(F)c3nc(OC[C@@H]4CCN4CC(F)F)nc1c23 (stereo partly drawn) [Compound 19] | – | – | – | 0.066 µM | > 1 µM | 0.015 µM
CC(c1cccnc1N)N1CCOc2nc(-c3cc(O)cc4ccc(F)c(F)c34)c(F)c3ncnc1c23 (stereo not drawn) [Compound 22] | – | – | – | 0.105 µM | 0.393 µM | 0.038 µM
CC(c1cccnc1N)N1CCOc2nc(-c3c(C(F)(F)F)ccc4[nH]ncc34)c(F)c3nc(OC[C@@H]4CCN4CC(F)F)nc1c23 (stereo partly drawn) [Compound 25] | – | – | – | 0.014 µM | 0.593 µM | 0.007 µM
CC(c1cccnc1N)N1CCOc2nc(-c3nc(N)cc4ccccc34)c(F)c3nc(OC[C@@H]4CCCN4C)nc1c23 (stereo partly drawn) [Compound 28, 1-(10-(1-(2-aminopyridin-3-yl)ethyl)-4-fluoro-2-(((S)-1-methylpyrrolidin-2-yl)methoxy)-9,10-dihydro-8H-7-oxa-1,3,6,10-tetraazacyclohepta[de]naphthalen-5-yl)isoquinolin-3-amine] | – | – | – | > 1 µM | > 1 µM | 0.448 µM
CSc1nc2c3c(nc(-c4cc(O)cc5ccc(F)c(F)c45)c(F)c3n1)OCCN2C(C)c1cccnc1N (stereo not drawn) [Compound 33] | – | – | – | 0.121 µM | > 1 µM | 0.193 µM
CC(c1cccnc1N)N1CCOc2nc(-c3cc(N)ccc3C(F)(F)F)c(F)c3nc(OC[C@@H]4CCCN4C)nc1c23 (stereo partly drawn) [Compound 36] | – | – | – | 0.025 µM | 0.286 µM | 0.006 µM
CC(c1cccnc1N)N1CCOc2nc(-c3cc(N)ccc3C(F)(F)F)c(F)c3nc(OC[C@@H]4CC(F)(F)CN4C)nc1c23 (stereo partly drawn) [Compound 37] | – | – | – | 0.026 µM | 0.851 µM | 0.011 µM
CC(c1cccnc1N)N1CCOc2nc(-c3c(C(F)(F)F)ccc4[nH]ncc34)c(F)c3nc(OC[C@@H]4CC(F)(F)CN4C)nc1c23 (stereo partly drawn) [Compound 40] | – | – | – | 0.031 µM | 0.934 µM | 0.018 µM
CC(c1cccnc1N)N1CCOc2nc(-c3cc(O)cc(F)c3C3CC3)c(F)c3nc(OC[C@@H]4CC(F)(F)CN4C)nc1c23 (stereo partly drawn) [Compound 45] | – | – | – | 0.053 µM | > 1 µM | 0.038 µM
CC(c1cccnc1N)N1CCOc2nc(-c3cc(O)cc4ccc(F)c(F)c34)c(F)c3nc(OC[C@@H]4CC(F)(F)CN4C)nc1c23 (stereo partly drawn) [Compound 46] | – | – | – | 0.005 µM | 0.287 µM | 0.004 µM
COc1ccc(C(F)(F)F)cc1-c1nc2c3c(nc(OC[C@@]45CCCN4C[C@H](F)C5)nc3c1F)N(C(C)c1cccnc1N)CCO2 (stereo partly drawn) [Compound 47] | – | – | – | > 1 µM | 0.347 µM | > 1 µM
Cc1cc(N)cc(-c2nc3c4c(nc(OC[C@@]56CCCN5C[C@H](F)C6)nc4c2F)N(C(C)c2cccnc2N)CCO3)c1C(F)(F)F (stereo partly drawn) [Compound 59] | – | – | – | 0.0007 µM | 0.002 µM | 0.0002 µM
C#Cc1ccc2[nH]ncc2c1-c1nc2c3c(nc(OC[C@@]45CCCN4C[C@H](F)C5)nc3c1F)N(C(C)c1cccnc1N)CCO2 (stereo partly drawn) [Compound 60] | – | – | – | 0.806 µM | > 1 µM | 0.518 µM
CC(c1cccnc1N)N1CCOc2nc(-c3cc(N)cc(Cl)c3C(F)(F)F)c(F)c3nc(OC[C@@]45CCCN4C[C@H](F)C5)nc1c23 (stereo partly drawn) [Compound 63] | – | – | – | 0.0005 µM | 0.002 µM | 0.0004 µM
